Assay results taken from PMC8591608, “DNDI-6148: A Novel Benzoxaborole Preclinical Candidate for the Treatment of Visceral Leishmaniasis” (Journal of Medicinal Chemistry, 2021).

Columns and labels:
[1] = test system: T. brucei trypanosomes maintaining a mutated version of CPSF3 (Asn232His); assay: Drug sensitivity, T. brucei with mutated CPSF3; format: cell-based
Procedure: The clonal L. donovani cell line LdBOB (derived from MHOM/SD/62/1S-CL2D) was grown as promastigotes at 28 °C, as described previously. Bloodstream form T. brucei MiTat 1.2 clone 221a and its derived subline, 2T1, were cultured at 37 °C in the presence of 5% CO2 in HMI9-T medium, as described previously. T. brucei cell lines overexpressing CPSF3 and overexpressing a mutated version of CPSF3 (Asn232His) were generated as part of a previous study and cultured as described.[19]
Drug sensitivity assays with wild-type and transgenic T. brucei and L. donovani cell lines were carried out as previously described.[31],[32]

[2] = test system: L. donovani; assay: L. donovani hamster model of VL; format: in vivo
Procedure: (§1) L. infantum (MHOM/MA/67/ITMAP263) and L. donovani (MHOM/ET/67/L82) were maintained in the golden (Syrian) hamster (Mesocricetus auratus). Ex vivo amastigotes were collected from the spleen of an infected donor hamster using two centrifugation purification steps: 230g for 10 min, keeping the supernatant layer, and 4100g for 30 min, keeping the pellet. The spleen parasite burden was assessed using the Stauber technique.[25] For in vitro assays, the inoculum was prepared in RPMI-1640 medium, supplemented with 200 mM L-glutamine, 16.5 mM NaHCO3, and 5% inactivated fetal calf serum. For the in vivo model, an infection inoculum containing 2 × 10^7 amastigotes/100 μL was prepared in phosphate-buffered saline (PBS).
(§2) Female golden hamsters for the in vivo model of visceral leishmaniasis were purchased from Janvier, France (body weight 80–100 g). This study using laboratory rodents was carried out in strict accordance with all mandatory guidelines (EU directives, including the Revised Directive 2010/63/EU on the protection of Animals used for Scientific Purposes that came into force on 01/01/2013, and the declaration of Helsinki in its latest version) and was approved by the ethical committee of the University of Antwerp, Belgium (UA-ECD 2011-74). Female golden hamsters for the pharmacokinetic study were purchased from Vital River, Beijing, China. This study was conducted following institutional review and in accordance with institutional and national guidelines at WuXi AppTec (the Institutional Animal Care and Use Committee (IACUC)). Balb/c mice for the in vivo model of visceral leishmaniasis (LSHTM) were purchased from Charles River, U.K., and related studies were conducted under license PPL 70/8427 from the U.K. Home Office.
(§3) Female golden hamsters were randomly allocated to experimental groups of six animals each, based on body weight. At the start of the experiment (Day 0), each animal was infected with L. infantum or L. donovani inoculum, delivered by intracardial injection. Six hamsters were assigned to the vehicle-treated, infected control group. Six hamsters were assigned per group (1 group/compound) for the evaluation of compound and miltefosine. At Day 21 postinfection (21 dpi), all animals in each group were dosed orally for five (or ten) consecutive days (21–25 dpi): compound was dosed at 25–50 mg/kg b.i.d.; miltefosine was dosed at 40 mg/kg q.d. At Day 35 (10 days after the final oral dose), all animals were euthanized and autopsies were conducted. The study evaluated the following parameters. • 1. Adverse effects: all animals were observed daily for the occurrence/presence of adverse effects. • 2. Body weight: all animals were weighed twice per week to monitor general health. • 3. Parasite burden: amastigote burdens in each target organ (liver, spleen, and bone marrow) were determined at Day 35. The organs of individual animals were weighed (except for bone marrow). Impression smears were stained with Giemsa for microscopic examination of the total amastigote burden, defined as the mean number of amastigotes per cell multiplied by the number of cells counted (minimum 500 nuclei); the results were expressed as a percentage reduction in amastigote burden compared to vehicle-treated, infected control animals.

[3] = test system: L. infantum; assay: L. infantum hamster model of VL; format: in vivo; details: for reduction in parasite burden, bone marrow, 10 days / reduction in parasite burden, liver, 10 days / reduction in parasite burden, spleen, 10 days: 25 mg/kg BID p.o. for 10 days
Procedure: as §1, §2
as §3, with “At Day 21 postinfection (21 dpi), all animals in each group were dosed orally for five (or ten) consecutive days (21–25 dpi): compound was dosed at 25–50 mg/kg b.i.d.; miltefosine was dosed at 40 mg/kg q.d.” left out

[4] = Human PK and dose prediction by allometric scaling
[5] = allometric scaling from rat and dog PK data

SMILES	reduction in parasite burden, bone marrow, 5 days ([2]; 50 mg/kg BID for 5 days) [%]	reduction in parasite burden, liver, 5 days ([2]; 50 mg/kg BID for 5 days) [%]	reduction in parasite burden, spleen, 5 days ([2]; 50 mg/kg BID for 5 days) [%]	reduction in parasite burden, bone marrow, 5 days ([3]; 25 mg/kg BID p.o. for 5 days) [%]	reduction in parasite burden, liver, 5 days ([3]; 25 mg/kg BID p.o. for 5 days) [%]	reduction in parasite burden, spleen, 5 days ([3]; 25 mg/kg BID p.o. for 5 days) [%]	reduction in parasite burden, bone marrow, 10 days [3] [%]	reduction in parasite burden, liver, 10 days [3] [%]	reduction in parasite burden, spleen, 10 days [3] [%]	reduction in parasite burden, bone marrow, 5 days ([3]; 50 mg/kg BID p.o. for 5 days) [%]	reduction in parasite burden, liver, 5 days ([3]; 50 mg/kg BID p.o. for 5 days) [%]	reduction in parasite burden, spleen, 5 days ([3]; 50 mg/kg BID p.o. for 5 days) [%]	further results
Cc1c(C(=O)Nc2ccc3c(c2)B(O)OC3)nnn1-c1ccccn1 [Compound 23, N-(1-Hydroxy-1,3-dihydrobenzo[c][1,2]oxaborol-6-yl)-5-methyl-1-(pyridin-2-yl)-1H-1,2,3-triazole-4-carboxamide]	83.4	99.3	98.6	93.6	98.3	98.2	99.4	100	99.9	99.0	99.8	99.9	EC50 ([1]; Trypanosoma brucei): 90 ± 3.4 nM; fold less sensitive compared to wild-type ([1]; bloodstream trypanosomes, CPSF3 Asn232His): 1.8 fold; reduction in parasite burden, bone marrow, 10 days ([2]; 25 mg/kg BID for 10 days): 99.6%; reduction in parasite burden, liver, 10 days ([2]; 25 mg/kg BID for 10 days): 99.9%; reduction in parasite burden, spleen, 10 days ([2]; 25 mg/kg BID for 10 days): 99.8%; predicted efficacious human dose ([4]; BID dosing in humans): 3 to 20 mg/kg; predicted bioavailability in humans [4, 5]: 40–90%; predicted clearance in humans [4, 5]: 1 to 4 mL/min/kg
Cc1c(-c2ccccn2)coc1C(=O)Nc1ccc2c(c1)B(O)OC2 [Compound 28, N-(1-Hydroxy-1,3-dihydrobenzo[c][1,2]oxaborol-6-yl)-3-methyl-4-(pyridin-2-yl)furan-2-carboxamide]	100	99.9	100	95.7	98.9	97.8	84	99.4	96.9	99.1	99.9	99.9	reduction in parasite burden, bone marrow, 5 days ([2]; 25 mg/kg BID for 5 days): 94.5%; reduction in parasite burden, liver, 5 days ([2]; 25 mg/kg BID for 5 days): 95.9%; reduction in parasite burden, spleen, 5 days ([2]; 25 mg/kg BID for 5 days): 95.9%
